Test results reported in patent publication US9950072B2, “Controlled release formulations for the delivery of HIF-1 inhibitors” (The Johns Hopkins University, priority 2012, dated 2018).
Entries after “also recorded” stand apart in the source; their conditions may differ.

Key:
[1] = tested on: retinal function in C57BL/6 mice; experiment: Electroretinograms (ERGs) after intraocular injection
Protocol: For scotopic recordings, mice were dark adapted overnight, and for photopic recordings, mice were adapted for 10 min to background white light at an intensity of 30 cd/m^2. The mice were anesthetized with an intraperitoneal injection of ketamine hydrochloride (100 mg/kg body weight) and xylazine (5 mg/kg body weight). Pupils were dilated with Midrin P containing of 0.5% tropicamide and 0.5% phenylephrine, hydrochloride (Santen Pharmaceutical Co., Osaka, Japan). The mice were placed on a pad heated to 39° C. and platinum loop electrodes were placed on each cornea after application of Gonioscopic prism solution (Alcon Labs, Fort Worth, Tex.). A reference electrode was placed subcutaneously in the anterior scalp between the eyes and a ground electrode was inserted into the tail. The head of the mouse was held in a standardized position in a ganzfeld bowl illuminator that ensured equal illumination of the eyes. Recordings for both eyes were made simultaneously with electrical impedance balanced. Scotopic ERGs were recorded at 11 intensity levels of white light ranging from −3.00 to 1.40 log cd-s/m2. Six measurements were averaged for each flash intensity. Photopic ERGs were recorded at three intensity levels of white light ranging from 0.60 to 1.40 log cd-s/m2 with a 30 cd/m2 background. Five measurements were averaged for each flash intensity.

[2] = tested on: choroidal NV in C57BL/6 mice; experiment: Laser-induced choroidal NV (rupture of Bruch's membrane) mouse model; assay type: in vivo; conditions: 14 days, vs fellow eyes injected with vehicle
Protocol: Pathogen-free C57BL/6 mice (Charles River, Wilmington, Mass.) were treated in accordance with the Association for Research in Vision and Ophthalmology Statement for the Use of Animals in Ophthalmic and Vision Research and the guidelines of the Johns Hopkins University Animal Care and Use Committee.
Choroidal NV was induced by laser photocoagulation-induced rupture of Bruch's membrane as previously described (Tobe, T. et al., Am. J. Pathol. 135(5): 1641-1646 (1998)). […] Laser photocoagulation (75 μm spot size, 0.1 sec duration, 120 mW) was performed in the 9, 12, and 3 o'clock positions of the posterior pole of each eye with the slit lamp delivery system of an OcuLight GL diode laser (Iridex, Mountain View, Calif.) and a handheld cover slip as a contact lens to view the retina. Production of a bubble at the time of laser, which indicates rupture of Bruch's membrane, is an important factor in obtaining CNV; therefore, only burns in which a bubble was produced were included in the study.
Immediately after laser-induced rupture of Bruch's membrane, mice were randomized to various treatment groups for intraocular injections. Intravitreal injections were done under a dissecting microscope with a Harvard Pump Microinjection System and pulled glass micropipettes.
At 1, 4, 7, and 14 days after injection, fundus photographs were taken with a Micron III® camera (Phoenix Research Laboratories Inc., Pleasanton, Calif.). After 14 days, the mice were perfused with 1 ml of PBS containing 25 mg/ml of fluorescein-labeled dextran (2×10^6 Daltons average molecular weight; Sigma-Aldrich, St. Louis, Mo.) and choroidal flat mounts were examined by fluorescence microscopy. Images were captured with a Nikon Digital Still Camera DXM1200 (Nikon Instruments Inc., New York, N.Y.). Image analysis software (Image-Pro® Plus; Media Cybernetics, Silver Spring, Md.) was used to measure the total area of CNV at each rupture site with the investigator masked with respect to treatment group.

[3] = tested on: retinal NV in C57BL/6 mice with oxygen-induced ischemic retinopathy; experiment: Oxygen-induced ischemic retinopathy, area of retinal NV; assay type: in vivo; conditions: measured five days later (P17)
Protocol: At P17, the area of retinal NV on the surface of the retina was measured. […] Retinas were dissected, washed, and incubated with goat-anti rat polyclonal antibody conjugated with Alexa 488 (Invitrogen, Carlsbad, Calif.) at 1:500 dilution at room temperature for 45 minutes and flat mounted. An observer masked with respect to treatment group measured the area of NV per retina by image analysis.

[4] = tested on: photoreceptor cells (ONL) of C57BL/6 mice; experiment: Outer nuclear layer (ONL) thickness after intraocular injection; assay type: in vivo; conditions: 0.25 μg intraocular; one week
Protocol: ONL thickness was measured. […] Mice were euthanized, a mark was placed at 12:00 at the corneal limbus, and eyes were removed and embedded in optimal cutting temperature compound. Ten micrometer frozen sections were cut parallel to the 12:00 or 9:00 meridian through the optic nerve and fixed in 4% paraformaldehyde. The sections were stained with hematoxylin and eosin, examined with an Axioskop microscope (Zeiss, Thornwood, N.Y.), and images were digitized using a three charge-coupled device (CCD) color video camera (IK-TU40A; Toshiba, Tokyo, Japan) and a frame grabber. Image-Pro Plus software (Media Cybernetics, Silver Spring, Md.) was used to outline the ONL.

[5] = tested on: HIF-1 transcriptional activity and ocular NV; conditions: intraocular injections of 0.01-0.25 μg; cited from earlier work
[6] = 1 μg intraocular, fourteen days
[7] = 0.1 μg intraocular injection after laser
[8] = 1.0 μg intraocular injection after laser
[9] = 10 μg intraocular injection after laser

Compound	mean scotopic and photopic b-wave amplitudes [1, 6]	area of CNV [2, 7]	area of CNV [2, 8]	area of CNV [2, 9]	area of RNV ([3]; 0.01 μg intraocular at P12)	area of RNV ([3]; 0.1 μg intraocular at P12)	area of RNV ([3]; 1.0 μg intraocular at P12)	mean scotopic and photopic b-wave amplitudes ([1]; 0.05 μg intraocular)	ERG amplitudes (scotopic a-wave, scotopic b-wave, photopic b-wave) ([1]; 0.25 μg intraocular, one week)	outer nuclear layer thickness [4]	effect on HIF-1 transcriptional activity and ocular NV [5]
COc1cccc2c1C(=O)c1c(O)c3c(c(O)c1C2=O)C[C@@](O)(C(C)=O)C[C@@H]3O[C@H]1C[C@H](N)[C@H](O)[C@H](C)O1 [DNR, daunorubicin]	significant reduction in mean scotopic and photopic b-wave amplitudes	had no significant effect; also recorded: did not show a statistically significant reduction in the area of CNV	had no significant effect; also recorded: did not show a statistically significant reduction in the area of CNV	suppressed choroidal NV; also recorded: statistically significant reduction in the area of CNV	had no significant effect; also recorded: did not show a statistically significant reduction in the area of RNV	caused a small reduction; also recorded: statistically significant reduction in the area of RNV	markedly reduced the area of retinal NV; also recorded: statistically significant reduction in the area of RNV	–	–	–	–
COc1cccc2c1C(=O)c1c(O)c3c(c(O)c1C2=O)C[C@@](O)(C(=O)CO)C[C@@H]3O[C@H]1C[C@H](N)[C@H](O)[C@H](C)O1 [DXR, doxorubicin]	significant reduction in mean scotopic and photopic b-wave amplitudes	did not have a significant effect; also recorded: did not show a statistically significant reduction in the area of CNV	did not have a significant effect; also recorded: did not show a statistically significant reduction in the area of CNV	suppressed choroidal NV; also recorded: statistically significant reduction in the area of CNV	but not 0.1 or 0.01 μg, significantly reduced; also recorded: did not show a statistically significant reduction in the area of RNV	but not 0.1 or 0.01 μg, significantly reduced; also recorded: did not show a statistically significant reduction in the area of RNV	significantly reduced the area of retinal NV; also recorded: statistically significant reduction in the area of RNV	–	–	–	–
C[C@H]1O[C@@H](O[C@H]2[C@@H](O)C[C@H](O[C@H]3[C@@H](O)C[C@H](O[C@H]4CC[C@@]5(C)[C@H](CC[C@@H]6[C@@H]5C[C@@H](O)[C@]5(C)[C@@H](C7=CC(=O)OC7)CC[C@]65O)C4)O[C@@H]3C)O[C@@H]2C)C[C@H](O)[C@@H]1O [digoxin]	–	–	–	–	–	–	–	significant reduction in mean scotopic and photopic b-wave amplitudes	significant reduction in mean scotopic a-wave amplitude, mean scotopic b-wave amplitude, and mean photopic b-wave amplitude	reduction in outer nuclear layer thickness at 3 of 6 measurement locations	suppress HIF-1 transcriptional activity and ocular NV
